From patent publication US9073944B2, “Cyclic diaminopyrimidine derivatives” (Merck Patent GmbH, priority 2012, dated 2015)

Key:
SYK = SYK (Homo sapiens, UniProt P43405); assay: SYK flash plate assay; assay type: biochemical; conditions: class symbols; read-out: IC50 SYK (enzyme assay)
Protocol: The kinase assay is performed either as 384-well Flashplate assay (for e.g. Topcount measurement) or as 384-well Image-Flashplate assay (for LEADseeker measurement). • 2.5 nM SYK, 400 nM Biotin-Aha-Aha-KEDPDYEWPSAKK • and 10 μM ATP (spiked with 0.3 μCi 33P-ATP/well) are incubated in a total volume of 50 μl (60 mM Hepes, 10 mM MgCl2, 1.2 mM Dithiothreitol, 0.02% Brij35, 0.1% BSA, pH 7.5) with or without test compound for 1 hours at 30° C. The reaction is stopped with 25 μl 200 mM EDTA. After 30 Min at 30° C. the liquid is removed and each well washed thrice with 100 μl 0.9% sodium chloride solution. Non-specific reaction is determined in presence of 0.1 μM Staurosporine. Radioactivity is measured with Topcount (when using Flashplates) or with LEADseeker (when using Image-Flashplates) respectively. Results (e.g. IC50-values) are calculated with program tools provided by the IT-department (e.g. Symyx Assay Explorer, Genedata Screener). In vivo Assays CIA

GCN2 = GCN2 (Homo sapiens, UniProt Q9P2K8); assay: GCN2 enzyme assay (TR-FRET Lanthascreen, GFP-eIF2alpha substrate); assay type: biochemical; conditions: class symbols
Chain of GCN2 (Q9P2K8 whole entry, species assumed): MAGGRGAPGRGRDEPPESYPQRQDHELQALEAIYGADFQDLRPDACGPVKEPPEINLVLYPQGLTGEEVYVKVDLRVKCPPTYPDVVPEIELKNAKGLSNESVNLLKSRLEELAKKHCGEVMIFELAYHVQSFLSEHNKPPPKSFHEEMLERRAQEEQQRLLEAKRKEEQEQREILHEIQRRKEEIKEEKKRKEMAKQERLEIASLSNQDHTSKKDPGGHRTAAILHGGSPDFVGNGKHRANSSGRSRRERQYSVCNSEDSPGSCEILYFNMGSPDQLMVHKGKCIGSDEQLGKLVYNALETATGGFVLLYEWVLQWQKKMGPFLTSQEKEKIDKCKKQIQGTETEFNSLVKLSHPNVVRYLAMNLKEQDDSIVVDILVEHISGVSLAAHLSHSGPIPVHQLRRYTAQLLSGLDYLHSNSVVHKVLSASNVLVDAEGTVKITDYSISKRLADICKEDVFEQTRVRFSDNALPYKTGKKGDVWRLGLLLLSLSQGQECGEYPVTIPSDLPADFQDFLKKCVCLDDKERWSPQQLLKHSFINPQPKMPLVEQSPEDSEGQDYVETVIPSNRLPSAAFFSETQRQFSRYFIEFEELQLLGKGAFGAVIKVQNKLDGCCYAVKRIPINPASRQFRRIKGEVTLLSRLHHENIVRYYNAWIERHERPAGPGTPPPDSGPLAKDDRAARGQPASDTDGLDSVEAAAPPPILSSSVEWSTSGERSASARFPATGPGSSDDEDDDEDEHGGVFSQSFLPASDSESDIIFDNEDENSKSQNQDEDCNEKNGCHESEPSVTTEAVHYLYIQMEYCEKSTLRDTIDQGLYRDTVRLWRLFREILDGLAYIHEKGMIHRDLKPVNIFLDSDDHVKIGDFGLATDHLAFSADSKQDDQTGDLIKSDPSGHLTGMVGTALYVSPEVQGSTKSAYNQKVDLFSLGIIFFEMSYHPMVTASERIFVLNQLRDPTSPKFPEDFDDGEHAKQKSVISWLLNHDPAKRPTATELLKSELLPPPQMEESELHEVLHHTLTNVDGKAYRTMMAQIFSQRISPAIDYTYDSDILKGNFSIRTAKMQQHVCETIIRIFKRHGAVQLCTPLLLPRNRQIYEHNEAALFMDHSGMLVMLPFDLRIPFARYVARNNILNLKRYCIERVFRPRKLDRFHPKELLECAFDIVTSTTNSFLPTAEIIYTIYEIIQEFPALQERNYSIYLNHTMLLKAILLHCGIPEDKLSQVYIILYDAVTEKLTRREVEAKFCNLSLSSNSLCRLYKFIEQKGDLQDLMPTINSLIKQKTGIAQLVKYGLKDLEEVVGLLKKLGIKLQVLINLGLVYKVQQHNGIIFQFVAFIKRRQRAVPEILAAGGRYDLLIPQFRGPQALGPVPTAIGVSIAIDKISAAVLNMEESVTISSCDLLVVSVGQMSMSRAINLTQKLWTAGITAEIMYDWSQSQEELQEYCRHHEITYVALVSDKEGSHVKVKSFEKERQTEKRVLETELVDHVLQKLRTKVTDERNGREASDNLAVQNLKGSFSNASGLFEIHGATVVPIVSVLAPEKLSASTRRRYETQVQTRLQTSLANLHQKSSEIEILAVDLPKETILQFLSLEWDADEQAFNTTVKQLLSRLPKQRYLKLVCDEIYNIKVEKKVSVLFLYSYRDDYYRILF
Protocol: APCI-MS (atmospheric pressure chemical ionisation-mass spectrometry) (M+H)^+. • Mass spectrometry (MS): EI (electron impact ionisation) M^+ • FAB (fast atom bombardment) (M+H)^+ • ESI (electrospray ionisation) (M+H)^+ • m.p.=melting point • LCMS Method: • Column: ZORBAX SB-C8 30*4.6 mm, 3.5 um • Mobile Phase A: Water+0.03% TFA • Mobile Phase B: ACN+0.05% TFA • Gradient: 5-95% B in 2.5 minutes • Flow: 2.0 mL/min • Wavelength: UV1:220 nm, UV2:254 nm • Mass Scan: 100-900 Da GCN2: Assay Principle & Conditions
This assay can quantificate the activity of the serin kinase GCN2 (general control non-derepressible-2).
This kinase is involved in the stress metabolism of cells. It is activated upon starvation (amino acid depletion). Its natural substrate is eIF2a (eukaryotic initiation factor 2 alpha subunit), a translation factor, which gets activated (phosphorylated) by GCN2 in case of an amino acid bottleneck in the cells. This in turn leads to a halt of the protein synthesis. Inhibition of GCN2 results in stopping this mechanism: The cell can not stop protein production upon “starvation” stress.
The assay is run in two steps: the enzymatic reaction and the detection step. In the first step GCN2 is incubated with 10 μM ATP and 80 nM of the GFP-labelled substrate eIF2alpha at room temperature.
The enzymatic reaction is stopped by addition of EDTA. The amount of phosphorylated eIF2alpha is determined by TR-FRET (Lanthascreen): A complex is formed consisting of antibody and GFP labelled phospho-eIF2a, which allows a FRET upon exitation at 340 nm.
The GCN2-activity is directly proportional to the ratio of fluorescence units at the emission wavelength 520 nm (phosphopeptide-sensitive wavelength=emission of GFP) to the units at 495 nm (reference wavelength=emission of Terbium-chelate).
Final Concentrations in the Enzymatic Reaction

Compound	IC50 (SYK) [µM]	IC50 (GCN2) [µM]
CN1CC(=O)Nc2cccc(c2)Nc2ncc(F)c(n2)Nc2ccc3c(c2)NC(=O)C(C)(O3)C1=O (racemic) [Compound 15]	< 0.3	0.3 to 3
CC12CCOC(=O)Nc3cccc(c3)Nc3ncc(F)c(n3)Nc3ccc(c(c3)NC1=O)O2 (stereo not drawn) [Compound 6]	< 0.3	
CN1CC(=O)N(C)c2cccc(c2)Nc2ncc(F)c(n2)Nc2ccc3c(c2)NC(=O)C(C)(O3)C1=O (stereo not drawn) [Compound B1]	3 to 50	
COc1cc2c3cc1Nc1ncc(F)c(n1)Nc1ccc4c(c1)NC(=O)C(C)(O4)C(=O)NCCN(C)CC(=O)N3CC2 (stereo not drawn) [Compound B7]	3 to 50	
COc1cc2ccc1OCCCCNC(=O)C1(C)Oc3ccc(cc3NC1=O)Nc1nc(ncc1F)N2 (stereo not drawn) [Compound B12]	3 to 50	0.3 to 3
CC12Oc3ccc(cc3NC1=O)Nc1nc(ncc1F)Nc1ccc(cc1)OCCC(=O)NCCCNC2=O (stereo not drawn) [Compound B15]	0.3 to 3	
CC12Oc3ccc(cc3NC1=O)Nc1nc(ncc1F)Nc1ccc(cc1)OCCCC(=O)NCCCNC2=O (stereo not drawn) [Compound B16]	0.3 to 3	
CC12Oc3ccc(cc3NC1=O)Nc1nc(ncc1F)Nc1cccc(c1)NC(=O)N1CCC[C@H]1C(=O)NCCCNC2=O (stereo partly drawn) [Compound B17]	3 to 50	
CC12Oc3ccc(cc3NC1=O)Nc1nc(ncc1F)Nc1cccc(c1)S(=O)(=O)NCCC(=O)NCCCNC2=O (stereo not drawn) [Compound B18]		0.3 to 3
COc1ccc2cc1Nc1ncc(F)c(n1)Nc1ccc3c(c1)NC(=O)C(C)(O3)C(=O)NCCNC2=O (stereo not drawn) [Compound B19]	0.3 to 3	
COc1cc2cc(c1)C(=O)NCCNC(=O)C1(C)Oc3ccc(cc3NC1=O)Nc1nc(ncc1F)N2 (stereo not drawn) [Compound B23]	0.3 to 3	0.3 to 3

The next lines start with the values.

IC50 (SYK) [µM]	IC50 (GCN2) [µM]	Compound
0.3 to 3	3 to 50	CN1CC(=O)Nc2cccc(c2)Nc2ncc(F)c(n2)Nc2ccc3c(c2)NC(=O)[C@@](C)(O3)C1=O (single isomer, unassigned) [Compound 16]
< 0.3	0.3 to 3	CN1CC(=O)Nc2cccc(c2)Nc2ncc(F)c(n2)Nc2ccc3c(c2)NC(=O)[C@](C)(O3)C1=O (single isomer, unassigned) [Compound 17]
< 0.3		CC12CCOC(=O)NCc3cccc(c3)Nc3ncc(F)c(n3)Nc3ccc(c(c3)NC1=O)O2 (stereo not drawn) [Compound 9]
3 to 50	3 to 50	CC12Oc3ccc(cc3NC1=O)Nc1nc(ncc1F)Nc1cccc(c1)CCNC2=O (stereo not drawn) [Compound 12]
< 0.3		COc1cc2cc(c1)NC(=O)CN(C)C(=O)C1(C)Oc3ccc(cc3NC1=O)Nc1nc(ncc1F)C2 (stereo not drawn) [Compound B2]
3 to 50	0.3 to 3	COc1cc2ccc1OCCCNC(=O)C1(C)Oc3ccc(cc3NC1=O)Nc1nc(ncc1F)N2 (stereo not drawn) [Compound B11]
0.3 to 3	3 to 50	COc1cc2ccc1OCCCCNC(=O)[C@@H](Cc1ccccc1)NC(=O)[C@]1(C)Oc3ccc(cc3NC1=O)Nc1nc(ncc1F)N2 [Compound B20]
0.3 to 3		COc1cc2ccc1OCCNC(=O)[C@H](Cc1ccccc1)NC(=O)[C@]1(C)Oc3ccc(cc3NC1=O)Nc1nc(ncc1F)N2 [Compound B25]
